This is an account of results in US20070078170A1, “Process for the preparation of pioglitazone” (priority 2003, published 2007).

The nature of data set [1]: Solubility studies in USPII dissolution apparatus. The format is physicochemical. The protocol: Solubility experiments were performed in USPII dissolution apparatus operated at 150 r.p.m., at 25° C., in the following media: 250 ml of 0.01N HC1-0.3M KCI (pH 2)
Procedure: 625 mg of pioglitazone hydrochloride was added in 250 ml of media and solubility was determined at given time points.

Data set [2] in a line: Clarity of solution in acidic media on standing. The format is physicochemical.
The mark [3] stands for this setting: 0.01N HCl-0.3M KCl media (pH 2).
[4] abbreviates: 1.5 hrs, 625 mg in 250 ml of 0.01N HCl-0.3M KCl (pH 2), 25° C., 150 r.p.m., average of six unit data, Hydrochloride.
The mark [5] stands for this setting: 5 hrs, 625 mg in 250 ml of 0.01N HCl-0.3M KCl (pH 2), 25° C., 150 r.p.m., average of six unit data, Hydrochloride.
Where [6] appears, read: 20 hrs, 625 mg in 250 ml of 0.01N HCl-0.3M KCl (pH 2), 25° C., 150 r.p.m., average of six unit data, Hydrochloride.

Turning to Pioglitazone Hydrochloride [Example 5], the Solubility (usually the concentration that dissolves in the medium under given conditions) is “more than 2.4 mg/ml” in data set [1] (setting [3]); 2719 µg/mL in data set [1] (30 min, 625 mg in 250 ml of 0.01N HCl-0.3M KCl (pH 2), 25° C., 150 r.p.m., average of six unit data); 2587 µg/mL in data set [1] (setting [4]); 2766 µg/mL in data set [1] (setting [5]); 2747 µg/mL in data set [1] (setting [6]). For the same substance, the “Standing time without precipitation from the solution” value in data set [1] (setting [3]) is given as “more than 5 hours”.

On to Pioglitazone Hydrochloride [Example 4], for which the “Observation of the media (turbidity, precipitation)” value in data set [1] (0.01N HCl-0.3M KCl (pH 2), later time points) is “the media starts becoming turbid and shows drug precipitation on later time points”. Further, the Solubility turned out to be 2265 µg/mL in data set [1] (setting [4]), 722 µg/mL in data set [1] (setting [5]) and 473 µg/mL in data set [1] (setting [6]).

For “pioglitazone hydrochloride [listing 1 of 2 here]”, in data set [2] (initially clear solution), the “Standing time after which the solution becomes turbid and the drug precipitates” value lay in the range of 4 to 5 h.

As to “pioglitazone hydrochloride [listing 2 of 2 here]”, the “Standing time over which the solution remains clear” value in data set [2] is not below 20 h.
